The results in this text go back to US20220332700A1, “NOVEL APOPTOSIS SIGNAL-REGULATING KINASE 1 INHIBITORS” (MANKIND PHARMA LTD, priority 2019, published 2022).

The IC50 is the point on the concentration scale where inhibition reaches its midpoint.

The target in the test is T1, recombinant ASK1 (Homo sapiens, UniProt Q99683).
T1 construct: purchased Carna Biosciences
Put plainly: ASK1 Biochemical Assay (HTRF KinEASE-STK S3). The following applies: ATP 100 μM; read-out: Biochemical Assay IC50. As to the method:
ASK1 biochemical assay was standardized using recombinant ASK1 (Carna Biosciences), substrate and detection reagents from Cisbio HRTF KinEASE-STK S3 kit. Enzyme concentration, ATP, biotinylated STK substrate and STK antibodies were titrated for enzyme assay. Assay was carried out in ASK1 kinase buffer, 10 mM MOPS pH-7, 10 mM Mg-acetate, 1 mM DTT, 0.025% NP40, 1.5% glycerol and 0.05% BSA. DMSO was used as vehicle control with a final concentration of 1%. A 5 ng of ASK1 enzyme was incubated with compound for 1 hour at 23° C. on a shaker at 100rpm. ATP and biotin substrate was added at a final concentration of 100 μM and 1 μM and incubated for 3 hours at 23° C. on a shaker at 100rpm. […] Delta F ratios were calculated from data obtained at excitation (337 nm) and emission wavelengths (665 nm and 620-10 nm). Substrate blank values was considered as negative control. Values from negative control was substrated from vehicle control and compound treated wells. Enzyme inhibition by compounds were calculated from vehicle controls, which represent uninterrupted enzyme's activity.

T1 sequence (Q99683 654-971 limits assumed): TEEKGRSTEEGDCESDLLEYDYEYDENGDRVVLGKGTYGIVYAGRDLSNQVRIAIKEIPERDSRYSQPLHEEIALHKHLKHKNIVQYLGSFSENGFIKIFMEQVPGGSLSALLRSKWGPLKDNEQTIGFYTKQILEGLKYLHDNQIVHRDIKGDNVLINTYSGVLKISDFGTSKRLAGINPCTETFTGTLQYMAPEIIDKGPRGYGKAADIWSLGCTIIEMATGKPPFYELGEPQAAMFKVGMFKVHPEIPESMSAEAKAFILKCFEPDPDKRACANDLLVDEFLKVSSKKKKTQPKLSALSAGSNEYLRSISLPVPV

Take `CC(C)n1cnnc1-c1cccc(N2CCN(c3cc(-n4ccnc4)ncn3)C2=O)n1` [Example 1001, 1-(6-(1H-imidazol-1-yl)pyrimidin-4-yl)-3-(6-(4-isopropyl-4H-1,2,4-triazol-3-yl)pyridin-2-yl)imidazolidin-2-one]: the IC50 was 1300 nM. Consider `CC(C)n1cnnc1-c1cccc(N2CCN(c3cc(-n4ccnc4)ccn3)C2=O)n1` [Example 1003, 1-(4-(1H-imidazol-1-yl)pyridin-2-yl)-3-(6-(4-isopropyl-4H-1,2,4-triazol-3-yl)pyridin-2-yl)imidazolidin-2-one], for which the IC50 is greater than 1000 nM. To `CC(C)n1cnnc1-c1cccc(-n2ccn(-c3cc(-n4ccnc4)ncn3)c2=O)n1` [Example 1004, 1-(6-(1H-imidazol-1-yl)pyrimidin-4-yl)-3-(6-(4-isopropyl-4H-1,2,4-triazol-3-yl)pyridin-2-yl)-1H-imidazol-2(3H)-one] belongs greater than 1000 nM; to `CC(C)n1cnnc1-c1cccc(N2CCN(c3cccc(-n4cnc(C5CC5)c4)c3)C2=O)n1` [Example 1005, 1-(3-(4-cyclopropyl-1H-imidazol-1-yl)phenyl)-3-(6-(4-isopropyl-4H-1,2,4-triazol-3-yl)pyridin-2-yl)imidazolidin-2-one], less than 1000 nM; to `CC(C)n1cnnc1-c1cccc(-n2ccn(-c3cccc(-n4ccnc4)c3)c2=O)n1` [Example 1006, 1-(3-(1H-imidazol-1-yl)phenyl)-3-(6-(4-isopropyl-4H-1,2,4-triazol-3-yl)pyridin-2-yl)-1H-imidazol-2(3H)-one], less than 1000 nM. For `CC(C)n1cnnc1-c1cccc(N2CCN(c3cccc(-n4ccnc4)c3F)C2=O)n1` [Example 1008, 1-(2-fluoro-3-(1H-imidazol-1-yl)phenyl)-3-(6-(4-isopropyl-4H-1,2,4-triazol-3-yl)pyridin-2-yl)imidazolidin-2-one] the value was greater than 1000 nM; for `CC(C)n1cnnc1-c1cccc(N2CCN(c3cccc(S(C)(=O)=O)c3)C2=O)n1` [Example 1009, 1-(6-(4-isopropyl-4H-1,2,4-triazol-3-yl)pyridin-2-yl)-3-(3-(methylsulfonyl)phenyl)imidazolidin-2-one], 95 nM; for `CC(C)n1cnnc1-c1cccc(N2CCN(c3cccc(-c4cnn(C)c4)c3)C2=O)n1` [Example 1012, 1-(6-(4-isopropyl-4H-1,2,4-triazol-3-yl)pyridin-2-yl)-3-(3-(1-methyl-1H-pyrazol-4-yl)phenyl)imidazolidin-2-one], less than 1000 nM.

Regarding `CC(C)n1cnnc1-c1cccc(N2CCN(c3cccc(-c4ccc(C(N)=O)cc4)c3)C2=O)n1` [Example 1015, 3′-(3-(6-(4-isopropyl-4H-1,2,4-triazol-3-yl)pyridin-2-yl)-2-oxoimidazolidin-1-yl)-[1,1′-biphenyl]-4-carboxamide], the IC50 is greater than 1000 nM.

For the compound `CC(C)n1cnnc1-c1cccc(N2CCN(c3cccc(-c4ccc(C#N)cc4)c3)C2=O)n1` [Example 1016, 3′-(3-(6-(4-isopropyl-4H-1,2,4-triazol-3-yl)pyridin-2-yl)-2-oxoimidazolidin-1-yl)-[1,1′-biphenyl]-4-carbonitrile], the IC50 was greater than 1000 nM. To `CC(C)n1cnnc1-c1cccc(N2CCN(c3cccc(-c4ccc(C(F)(F)F)cc4)c3)C2=O)n1` [Example 1017, 1-(6-(4-isopropyl-4H-1,2,4-triazol-3-yl)pyridin-2-yl)-3-(4′-(trifluoromethyl)-[1,1′-biphenyl]-3-yl)imidazolidin-2-one] belongs greater than 1000 nM. For `COc1cc(C)c(-c2ccc(S(C)(=O)=O)cc2)cc1N1CCN(c2cccc(-c3nncn3C(C)C)n2)C1=O` [Example 1026, 1-(6-(4-isopropyl-4H-1,2,4-triazol-3-yl)pyridin-2-yl)-3-(4-methoxy-6-methyl-4′-(methylsulfonyl)-[1,1′-biphenyl]-3-yl)imidazolidin-2-one], the IC50 is greater than 100 nM.

As for `CC(C)n1cnnc1-c1cccc(N2CCN(S(C)(=O)=O)C2=O)n1` [Example 1028, 1-(6-(4-isopropyl-4H-1,2,4-triazol-3-yl)pyridin-2-yl)-3-(methylsulfonyl)imidazolidin-2-one], the IC50 was greater than 1000 nM. In the case of `CC(C)n1cnnc1-c1cccc(N2CCN(c3ccc(O)cc3)C2=O)n1` [Example 1030, 1-(4-hydroxyphenyl)-3-(6-(4-isopropyl-4H-1,2,4-triazol-3-yl)pyridin-2-yl)imidazolidin-2-one], the IC50 was greater than 1000 nM. For `COc1cc(C)c(S(C)(=O)=O)cc1N1CCN(c2cccc(-c3nncn3C(C)C)n2)C1=O` [Example 1031, 1-(6-(4-isopropyl-4H-1,2,4-triazol-3-yl)pyridin-2-yl)-3-(2-methoxy-4-methyl-5-(methylsulfonyl)phenyl)imidazolidin-2-one] the value was greater than 1000 nM; for `CC(C)n1cnnc1-c1cccc(N2CCN(c3ccc(C(F)(F)F)cc3)C2=O)n1` [Example 1033, 1-(4-(trifluoromethyl)phenyl)-3-(6-(4-isopropyl-4H-1,2,4-triazol-3-yl)pyridin-2-yl)imidazolidin-2-one], greater than 100 nM. For `Cc1cc(S(C)(=O)=O)ccc1N1CCN(c2cccc(-c3nncn3C(C)C)n2)C1=O` [Example 1042, 1-(6-(4-isopropyl-4H-1,2,4-triazol-3-yl)pyridin-2-yl)-3-(2-methyl-4-(methylsulfonyl)phenyl)imidazolidin-2-one] the value was greater than 100 nM; for `CC(C)n1cnnc1-c1cccc(N2CCN(c3ccc4nc(NC5CC5)sc4c3)C2=O)n1` [Example 1046, N-cyclopropyl-6-(3-(6-(4-isopropyl-4H-1,2,4-triazol-3-yl)pyridin-2-yl)-2-oxoimidazolidin-1-yl)benzo[d]thiazol-2-aminium 2,2,2-trifluoroacetate], greater than 100 nM. To `CC(C)n1cnnc1-c1cccc(N2CCN(c3ccc(S(C)(=O)=O)c(N4CCCC4)c3)C2=O)n1` [Example 1058, 1-(6-(4-isopropyl-4H-1,2,4-triazol-3-yl)pyridin-2-yl)-3-(4-(methylsulfonyl)-3-(pyrrolidin-1-yl)phenyl)imidazolidin-2-one] belongs greater than 100 nM; to `CC(C)n1cnnc1-c1cccc(N2CCN(c3ccc(F)c(C4CC4)c3)C2=O)n1` [Example 1060, 1-(3-cyclopropyl-4-fluorophenyl)-3-(6-(4-isopropyl-4H-1,2,4-triazol-3-yl)pyridin-2-yl)imidazolidin-2-one], less than 100 nM; to `CC(C)c1cc(N2CCN(c3cccc(-c4nncn4C(C)C)n3)C2=O)ccc1S(C)(=O)=O` [Example 1062, 1-(3-isopropyl-4-(methylsulfonyl)phenyl)-3-(6-(4-isopropyl-4H-1,2,4-triazol-3-yl)pyridin-2-yl)imidazolidin-2-one], greater than 1000 nM. With `CC(C)n1cnnc1-c1ccc(N2CCN(c3ccc(S(C)(=O)=O)cc3)C2=O)nc1` [Example 1064, 1-(5-(4-isopropyl-4H-1,2,4-triazol-3-yl)pyridin-2-yl)-3-(4-(methylsulfonyl)phenyl)imidazolidin-2-one], the IC50 is greater than 100 nM. To `CC(C)n1cnnc1-c1cccc(N2CCN(c3ccc(S(C)(=O)=O)cc3)C2=O)n1` [Example 1065, 1-(6-(4-isopropyl-4H-1,2,4-triazol-3-yl)pyridin-2-yl)-3-(4-(methylsulfonyl)phenyl)imidazolidin-2-one] belongs greater than 1000 nM.
